In this assay the test system is 935938-334-R-J1-PDC complex spheroid viability. Description: Anticancer human tumor 935938-334-R-J1-PDC patient-derived small intestine adenocarcinoma cell line growth inhibition [POLQ]. The settings on record: for viability, T/C: stronger effect = lower value. The method, then: Multicellular complex tumor spheroid response to Polymerase (POL) inhibitors (novobiocin, ART-558, RP6685) in combination with a variety of drugs and investigational agents in selected tumor cell lines
The POL inhibitors (novobiocin, ART-558, and RP6685) were evaluated both individually and in combination with standard of care and investigational anticancer small molecules within a complex spheroid model of solid tumors. . Complex spheroids include a stromal component modeled by human endothelial cells (HUVEC) and fibroblasts modeled by human mesenchymal stem cells (MSCs). The concentration ranges selected for each drug and investigational agent were based upon clinically achievable concentrations if the clinical Cmax of the agent was known.
Compounds. The drugs and investigational agents: novobiocin (NSC847541), ART-558 (NSC835418), RP-6685 (NSC848927), peposertib (NSC802822), ceralasertib (NSC780249), elimusertib (NSC800525), camonsertib (NSC841442), AZD-1390 (NSC803789), olaparib (NSC753686), talazoparib (NSC767125), rucaparib (NSC756644), sotorasib (NSC818433), MRTX-1133 (NSC836407), SN-38 (NSC673596), topotecan (NSC609699), epotoside (NSC141540), doxorubicin (NSC123127), gemcitabine (NSC613327), 5-fluorouracil (NSC19893), paclitaxel (NSC125973), vemurafenib (NSC761431), MSA-2 (NSC828583), SN-011 (NSC837082), adavosertib (NSC754352), prexasertib (NSC758257), carboplatin (NSC241240) and oxaliplatin (NSC266046), were obtained from the National Cancer Institute (NCI) Developmental Therapeutics Program Chemical Repository (21). The FDA-approved anticancer drug set is available from the Developmental Therapeutics Program at https://dtp.cancer.gov/organization/dscb/obtaining/. […] The stock solutions were prepared in dimethyl sulfoxide (DMSO, Sigma-Aldrich, St. Louis, MO, cat. D2650), except for the platinum compounds which were prepared in saline (Quality Biological, Gaithersburg, MD, cat. 114-055-101), at 800-fold the tested concentration and stored at -70 degrees C prior to their use. All drugs and investigational agents were tested over a range starting from a high concentration at or near the clinical Cmax and decreasing in half-log increments. If the clinical Cmax for an agent had not been determined, the highest concentration tested was 10 microM, except for SN-38, which was tested at a high concentration of 1 microM.
Cell Culture. All cells were maintained in an incubator at 37 degrees C and 5% CO2 with 95% humidity. The PDC lines were cultured according to standard operating procedures established by the NCI PDMR (https://pdmr.cancer.gov). Table 3 of the manuscript, lists the cell lines along with the number of the three cell types plated to form the mct-spheroids and media for tumor cell growth. After thawing, all PDC lines, except 997537-175-T-J1-PDC and 415267-285-R-J2-PDC, were cultured in Matrigel-coated flasks prepared with a working solution of 1X Ham's F-12 nutrient mix, without supplementation (Thermo Fisher Scientific, cat. 11765054), 100 U/mL penicillin-streptomycin (Thermo Fisher Scientific, cat. 15140122), and 2.5% Matrigel (Corning Inc., Corning, NY, cat. 354248) for the first three passages. The two PDC lines 997537-175-T-J1-PDC and 415267-285-R-J2-PDC were cultured on uncoated flasks. The 857933-349-R-J2-PDC line was cultured in 6C/Colon 1B media containing advanced DMEM/F-12 (Thermo Fisher Scientific, cat. 12634028), 10 mM HEPES (Thermo Fisher Scientific, cat. 15630080), 1X GlutaMAX supplement (Thermo Fisher Scientific, cat. 35050061), 0.1 mg/mL primocin (InvivoGen, San Diego, CA, cat. ant-pm-2), 10% defined fetal bovine serum, heat inactivated (HyClone Laboratories Inc., Logan, UT, cat. SH30070.03HI), 50% L-WRN conditioned media (ATCC, cat. CRL-3276), 1.25 mM N-Acetyl-L-cysteine (Sigma-Aldrich, cat. A9165), 10 mM nicotinamide (Sigma-Aldrich, cat. N0636), 1X B-27 supplement (Thermo Fisher Scientific, cat. 17504044), 1X N-2 supplement (Thermo Fisher Scientific, cat. […]

A value given as a limit tells only on which side of the number the result lay.
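Also: spheroids exposed to drugs for seven days before viability read.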
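For viability, T/C in this document: 100% = DMSO vehicle control wells.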

Consider `CCc1cc2c(N3CCc4c(cc(Cn5ccnc5)cc4-c4cn(C)nc4C(F)(F)F)C3=O)ccnc2c(OC)n1` + Nc1ccc(C#CCN(C(=O)Cc2ncc(C(F)(F)F)cc2C(F)(F)F)c2ccc(F)cc2)nn1, for which the IC50 (in general, the point on the concentration scale where inhibition reaches its midpoint) by setting is: (curve of first compound, second compound 0.0316 µM) over 10 µM; (curve of first compound, second compound 0.1 µM) over 10 µM; (curve of first compound, second compound 0.316 µM) over 10 µM; (curve of first compound, second compound 1 µM) over 10 µM; (curve of first compound, second compound 3.16 µM) over 10 µM; (curve of first compound, second compound 10 µM) over 10 µM. The viability, T/C (commonly the result in the treated group divided by that in the control group, in per cent) (second compound 0.0316 µM, first compound 0.0316 µM) is 79.9%; the viability, T/C (second compound 0.0316 µM, first compound 0.1 µM) was 57.4%; the viability, T/C (second compound 0.0316 µM, first compound 0.316 µM) is 52.4%; the viability, T/C (second compound 0.0316 µM, first compound 1 µM) is 70.4%; the viability, T/C (second compound 0.0316 µM, first compound 3.16 µM) is 59.1%; the viability, T/C (second compound 0.0316 µM, first compound 10 µM) was 60.8%. Further, the viability, T/C reads like this: (second compound 0.1 µM, first compound 0.0316 µM) 88.2%; (second compound 0.1 µM, first compound 0.1 µM) 68%; (second compound 0.1 µM, first compound 0.316 µM) 64.5%; (second compound 0.1 µM, first compound 1 µM) 57.4%; (second compound 0.1 µM, first compound 3.16 µM) 70%; (second compound 0.1 µM, first compound 10 µM) 60.7%. For the same molecule, the viability, T/C (second compound 0.316 µM, first compound 0.0316 µM) is 88.8%; the viability, T/C (second compound 0.316 µM, first compound 0.1 µM) is 66%; the viability, T/C (second compound 0.316 µM, first compound 0.316 µM) is 67.9%; the viability, T/C (second compound 0.316 µM, first compound 1 µM) was 63.5%; the viability, T/C (second compound 0.316 µM, first compound 3.16 µM) was 63.5%; the viability, T/C (second compound 0.316 µM, first compound 10 µM) is 61.7%. The viability, T/C (second compound 1 µM, first compound 0.0316 µM) is 91.2%; the viability, T/C (second compound 1 µM, first compound 0.1 µM) is 67.1%; the viability, T/C (second compound 1 µM, first compound 0.316 µM) was 82.7%; the viability, T/C (second compound 1 µM, first compound 1 µM) was 70.5%; the viability, T/C (second compound 1 µM, first compound 3.16 µM) was 59.5%; the viability, T/C (second compound 1 µM, first compound 10 µM) is 64.4%. The viability, T/C was 90.6% (second compound 3.16 µM, first compound 0.0316 µM); 97.6% (second compound 3.16 µM, first compound 0.1 µM); 70.3% (second compound 3.16 µM, first compound 0.316 µM); 64.6% (second compound 3.16 µM, first compound 1 µM); 72.5% (second compound 3.16 µM, first compound 3.16 µM); 60.2% (second compound 3.16 µM, first compound 10 µM). In addition, the viability, T/C (second compound 10 µM, first compound 0.0316 µM) is 80.7%; the viability, T/C (second compound 10 µM, first compound 0.1 µM) is 82.2%; the viability, T/C (second compound 10 µM, first compound 0.316 µM) was 85.5%; the viability, T/C (second compound 10 µM, first compound 1 µM) was 64.3%; the viability, T/C (second compound 10 µM, first compound 3.16 µM) is 56.7%; the viability, T/C (second compound 10 µM, first compound 10 µM) is 66.9%.

For the molecule `Cc1cccc(N(C)C(=O)C2C(O)CCN2c2nc(C)cc(C(F)(F)F)c2C#N)c1` (centres undefined), the IC50 was over 10 µM (compound alone, run of 11/27/2023) and over 10 µM (compound alone, run of 12/05/2023).

These data come from PubChem BioAssay AID1963829 (Molecular Pharmacology Branch, DTP, NCI, 2024).
